The target of assay [1] is T1, wild-type human cardiac sodium channel, hNav1.5 (Homo sapiens, UniProt Q14524). The assay is described as follows: Late INa screening assay (QPatch whole cell patch clamp, Tefluthrin-induced late current). In kind it is cell-based. The note with it: HEK293 hNav1.5, percent block of late INa. As for the experimental part: (§1) The cardiac late sodium current (Late INa) and peak sodium current (Peak INa) assays are performed on an automated electrophysiology platform, QPatch 16X or QPatch HT (Sophion Bioscience, Copenhagen, Denmark) using the whole cell patch clamp technique to measure currents through the cell membrane. The assay uses an HEK293 (human embryonic kidney) cell line heterologously expressing the wild-type human cardiac sodium channel, hNav1.5, purchased from Millipore (Billerica, Mass.). No beta subunits were coexpressed with the Na channel alpha subunit. Cells are maintained with standard tissue culture procedures and stable channel expression is maintained with 400 μg/mL Geneticin in the culture medium. Experiments are carried out at 23-25° C.
T1 sequence (Q14524 whole entry): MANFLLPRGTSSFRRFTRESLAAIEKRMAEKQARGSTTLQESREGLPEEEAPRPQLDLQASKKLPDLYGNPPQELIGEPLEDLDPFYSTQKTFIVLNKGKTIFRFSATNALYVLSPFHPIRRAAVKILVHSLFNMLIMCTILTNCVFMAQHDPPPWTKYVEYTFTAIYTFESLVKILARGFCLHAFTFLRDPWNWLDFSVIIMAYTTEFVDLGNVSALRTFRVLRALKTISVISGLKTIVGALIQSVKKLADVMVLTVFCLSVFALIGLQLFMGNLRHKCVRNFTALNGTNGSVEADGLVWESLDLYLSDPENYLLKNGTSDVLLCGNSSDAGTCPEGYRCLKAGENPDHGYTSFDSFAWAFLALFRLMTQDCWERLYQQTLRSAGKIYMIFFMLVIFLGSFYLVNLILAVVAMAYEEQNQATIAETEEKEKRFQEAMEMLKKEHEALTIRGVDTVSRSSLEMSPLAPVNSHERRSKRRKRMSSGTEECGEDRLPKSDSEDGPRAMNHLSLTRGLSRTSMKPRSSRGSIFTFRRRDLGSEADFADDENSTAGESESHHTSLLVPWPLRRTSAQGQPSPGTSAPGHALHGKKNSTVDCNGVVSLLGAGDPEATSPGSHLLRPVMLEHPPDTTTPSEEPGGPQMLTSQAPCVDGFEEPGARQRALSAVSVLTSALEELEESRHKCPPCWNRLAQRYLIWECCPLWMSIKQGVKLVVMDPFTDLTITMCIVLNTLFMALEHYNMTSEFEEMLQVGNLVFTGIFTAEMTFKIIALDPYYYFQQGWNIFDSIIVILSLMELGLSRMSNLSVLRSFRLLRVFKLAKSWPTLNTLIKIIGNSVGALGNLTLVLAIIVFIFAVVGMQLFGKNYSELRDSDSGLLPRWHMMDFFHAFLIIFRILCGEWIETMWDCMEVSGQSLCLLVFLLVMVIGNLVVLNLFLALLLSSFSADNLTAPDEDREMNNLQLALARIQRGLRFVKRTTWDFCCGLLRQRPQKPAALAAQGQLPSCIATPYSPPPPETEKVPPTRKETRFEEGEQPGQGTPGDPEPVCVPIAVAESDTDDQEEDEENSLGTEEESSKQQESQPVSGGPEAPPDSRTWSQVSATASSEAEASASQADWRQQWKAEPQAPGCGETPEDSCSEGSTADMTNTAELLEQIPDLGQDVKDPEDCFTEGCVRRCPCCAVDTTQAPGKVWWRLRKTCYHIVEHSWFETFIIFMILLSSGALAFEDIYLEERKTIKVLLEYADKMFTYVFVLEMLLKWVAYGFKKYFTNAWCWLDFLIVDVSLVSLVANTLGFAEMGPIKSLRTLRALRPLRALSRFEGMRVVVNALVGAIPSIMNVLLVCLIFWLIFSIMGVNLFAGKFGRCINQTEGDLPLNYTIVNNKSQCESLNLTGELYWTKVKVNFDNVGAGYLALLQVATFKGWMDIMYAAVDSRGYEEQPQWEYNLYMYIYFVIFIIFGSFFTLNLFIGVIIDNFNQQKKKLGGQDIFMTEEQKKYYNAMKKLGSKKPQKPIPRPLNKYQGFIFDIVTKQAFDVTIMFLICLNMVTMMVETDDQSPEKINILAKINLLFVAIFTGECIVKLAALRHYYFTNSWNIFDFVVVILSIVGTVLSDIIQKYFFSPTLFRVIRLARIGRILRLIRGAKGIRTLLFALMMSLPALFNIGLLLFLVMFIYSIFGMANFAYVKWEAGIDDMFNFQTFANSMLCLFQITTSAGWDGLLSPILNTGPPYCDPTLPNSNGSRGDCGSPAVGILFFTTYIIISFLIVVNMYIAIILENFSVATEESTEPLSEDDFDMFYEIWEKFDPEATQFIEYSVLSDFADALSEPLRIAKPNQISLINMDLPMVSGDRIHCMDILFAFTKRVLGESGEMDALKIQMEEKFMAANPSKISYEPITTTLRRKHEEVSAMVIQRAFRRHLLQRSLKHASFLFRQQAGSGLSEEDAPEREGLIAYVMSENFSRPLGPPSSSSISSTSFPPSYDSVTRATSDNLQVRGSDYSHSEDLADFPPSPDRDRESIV
(§2) For both the Late INa and Peak INa assays, series resistance compensation is set to 100% and series resistance and whole-cell compensation are performed automatically. Currents are digitized at 25 kHz and low-pass filtered at 5 kHz and stored in the Sophion Bioscience Oracle database (Sophion Bioscience, Copenhagen, Denmark). Analysis is performed using QPatch Assay software and data are compiled in Excel 2010 (Microsoft, Seattle, Wash., U.S.A.).
(§3) Compound stocks are routinely made by the Gilead Sample Bank in vials to 10 mM in dimethyl sulfoxide (DMSO). In some cases, when compounds are not soluble in DMSO, they are made in 100% ethanol. Stocks are sonicated as necessary. The extracellular solution for screening Late INa is composed of: 140 mM NaCl, 4 mM KCl, 1.8 mM CaCl2, 1 mM MgCl2, 10 mM HEPES and 10 mM Dextrose with pH adjusted to 7.35 using NaOH. The intracellular solution contains: 105 mM CsF, 20 mM CsCl, 10NaF, 2 mM EGTA, 10 mM HEPES and 10 mM Dextrose with pH adjusted to 7.35 with CsOH. Compounds are diluted in extracellular solution using a MicroLab Nimbus (Hamilton Robotics, Reno, Nev.) to between 0.3 and 3 μM in glass vials and transferred to glass well plates before robotic addition to the cells. The 0 mM Na extracellular solution (0Na-ECF) used at the end of each experiment for the Late INa and Peak INa assays to measure baseline current contains: 140 Choline-Cl; 4 mM KCl, 1.8 mM CaCl2; 1 mM MgCl2; 10 mM HEPES and 10 mM Dextrose with pH was adjusted to 7.35 with CsOH.
For the Late INa assay, sodium channels are activated every 10 seconds (0.1 Hz) by depolarizing the cell membrane to −20 mV for 250 milliseconds (ms) from a holding potential of −120 mV.
Compounds were tested to determine their activity in blocking the late sodium current. Late INa was generated by adding 10 μM Tefluthrin (pyrethroid) to the extracellular solution. For the purposes of the screening, Late INa is defined as the mean current between […] during the voltage step to −20 mV. After establishing the whole cell recording configuration, Late INa activator is added to each well 4 times over a 15 minute period so that the late component of the Na current reaches a stable value. Compounds were then added (typically at 0.3 or 1 μM), in the presence of the Late Na^+ activator, with 3 additions over the course of 5 minutes. Measurements were made at the end of exposure to the third compound addition and values were normalized to the current level when all Na^+ was removed from the extracellular solution after two additions of 0Na-ECF.
Results are reported as percent block of late INa and results were analyzed by incorporating rundown correction for the Late INa.

Assay [2] deals with T1, wild-type human cardiac sodium channel, hNav1.5. Put plainly: Peak INa screening assay (tonic block and use-dependent block). It is filed as cell-based. The protocol:
as §1, §2, §3
Compounds were evaluated for their effect Nav1.5 Peak INa. It is contemplated that the compounds of Formula I avoid significant block of peak INa. Since the peak INa in the cells used herein can be very large, introducing artifacts in the recording, the concentration of Na^+ in the bath can be reduced to 40 mM by isosmotic replacement of Na^+ with Choline (see below).
Tonic Block (TB) of Peak INa was measured using a voltage step to −20 mV from a holding potential of −100 mV at a low stimulation frequency of 0.1 Hz. Use-Dependent Block (UDB) of Peak INa was measured during pulse number 50 of a pulse train (−20 mV, 20 ms, 50 pulses, 3 Hz) from a holding potential of −100 mV.
The extracellular solution for screening Peak INa is composed of: 40 mM NaCl, 100 mM Choline-Cl, 4 mM KCl, 1.8 mM CaCl2, 1 mM MgCl2 10 mM HEPES and 10 mM Dextrose with pH adjusted to 7.35 using NaOH. The intracellular solution used for the Peak INa assay is the same as outlined for the Late INa assay (see above).
After establishing the whole cell recording configuration, channels were stimulated to open with low frequency (0.1 Hz) so that the recording can be monitored and the extent to which the recording has stabilized can be assessed.
The test compound is then applied at 1 or 3 μM and was added 2 times at 60 second intervals. After the second compound addition, a 200 second wait period was imposed to allow for equilibration. Voltage protocols for TB and UDB are were performed in the absence and presence of compound and TB and UDB are calculated with respect to the compound free condition. Both TB and UDB were analyzed by incorporating rundown correction for the peak INa.

The mark [3] stands for this setting: tonic block of Peak INa, 0.1 Hz, holding -100 mV, read-out: Peak TB 3 uM.
[4] abbreviates: use-dependent block of Peak INa, 3 Hz, pulse 50, read-out: Peak UDB 3 Hz 3 uM.

These results are taken from patent publication US9416115B2, “Fused heterocyclic compounds as ion channel modulators” (Gilead Sciences, Inc., priority 2013, dated 2016).

Like-named read-outs stand apart in the source and are kept apart here. Bounds are passed on as bounds.

In the case of `O=C1CCCN1CCNc1noc2ccc(-c3ccc(OC(F)(F)F)cc3)cc12` [Example 135, 1-(2-((5-(4-(trifluoromethoxy)phenyl)benzo[d]isoxazol-3-yl)amino)ethyl)pyrrolidin-2-one], in assay [1], the inhibition at 0.3 µM stood at 19.7% and the inhibition at 1 µM stood at 48.8%. Moreover, the inhibition at 3 µM in assay [2] (setting [3]) worked out at 29.3%. The inhibition at 3 µM in assay [2] (setting [4]) was found to be 18%.
For the compound `Fc1cccnc1COc1noc2ccc(-c3ccc(OC(F)(F)F)cc3)cc12` [Example 94, 3-((3-fluoropyridin-2-yl)methoxy)-5-(4-(trifluoromethoxy)phenyl)benzo[d]isoxazole], in assay [1], the inhibition at 0.3 µM is 35.1% and the inhibition at 1 µM was 58.7%. Further, in assay [2] (setting [3]), the inhibition at 3 µM came out at 17.1%. Also, the inhibition at 3 µM in assay [2] (setting [4]) is under 5%.
Regarding `FC(F)(F)Oc1ccc(-c2ccc3onc(NCc4ncccn4)c3c2)cc1` [Example 126, N-(pyrimidin-2-ylmethyl)-5-(4-(trifluoromethoxy)phenyl)benzo[d]isoxazol-3-amine], the inhibition at 1 µM in assay [1] was 50%. Besides, the inhibition at 3 µM in assay [2] (setting [3]) is 17.3%; in assay [2] (setting [4]), under 5%.
On to `Fc1cc(-c2ccc(OC(F)(F)F)cc2)cc2c(OCc3nnc(C4CC4)o3)noc12` [Example 104, 3-((5-cyclopropyl-1,3,4-oxadiazol-2-yl)methoxy)-7-fluoro-5-(4-(trifluoromethoxy)phenyl)benzo[d]isoxazole], for which the inhibition at 1 µM in assay [1] came out at 38.6%. The values for the inhibition at 3 µM in assay [2] (setting [3]) and in assay [2] (setting [4]) were 23.6% and 19.8%, respectively.
In assay [1], `O=C1CCCN1CCOc1noc2ccc(-c3ccc(OC(F)(F)F)cc3)cc12` [Example 59, 1-(2-((5-(4-(trifluoromethoxy)phenyl)benzo[d]isoxazol-3-yl)oxy)ethyl)pyrrolidin-2-one] gave an inhibition at 0.3 µM of 43.7% and an inhibition at 1 µM of 60.4%. For the same compound, in assay [2] (setting [3]), the inhibition at 3 µM amounted to 19%. Further, the inhibition at 3 µM in assay [2] (setting [4]) was under 5%.
On to `FC(F)(F)Oc1ccc(-c2ccc3onc(-n4cnc(Cl)c4)c3c2)cc1` [Example 140, 3-(4-chloro-1H-imidazol-1-yl)-5-(4-(trifluoromethoxy)phenyl)benzo[d]isoxazole], for which the inhibition at 1 µM in assay [1] came to 37.6%. The values for the inhibition at 3 µM in assay [2] (setting [3]) and in assay [2] (setting [4]) were 8.5% and under 5%, respectively.
Regarding `CC(C)(C)c1cn(-c2noc3ccc(-c4ccc(OC(F)(F)F)cc4)cc23)cn1` [Example 143, 3-(4-(tert-butyl)-1H-imidazol-1-yl)-5-(4-(trifluoromethoxy)phenyl)benzo[d]isoxazole], in assay [1], the inhibition at 0.3 µM came out at 35.9% and the inhibition at 1 µM amounted to 60.3%. Moreover, the inhibition at 3 µM in assay [2] (setting [3]) stood at 39.8%. Also, the inhibition at 3 µM in assay [2] (setting [4]) was 11.2%.
Take `FC(F)(F)Oc1ccc(-c2ccc3onc(OCC4CCO4)c3c2)cc1` (centres unmarked) [Example 42, 3-(oxetan-2-ylmethoxy)-5-(4-(trifluoromethoxy)phenyl)benzo[d]isoxazole]: in assay [1], the inhibition at 0.3 µM is 17.5% and the inhibition at 1 µM was found to be 57.3%. Also, the inhibition at 3 µM in assay [2] (setting [3]) amounted to 27.6%. For the same compound, the inhibition at 3 µM in assay [2] (setting [4]) is under 5%.
Regarding `COc1ccnc(CNc2noc3ccc(-c4ccc(OC(F)(F)F)cc4)cc23)n1` [Example 149, N-((4-methoxypyrimidin-2-yl)methyl)-5-(4-(trifluoromethoxy)phenyl)benzo[d]isoxazol-3-amine], in assay [1], the inhibition at 0.3 µM was determined as 50.9% and the inhibition at 1 µM is 87.6%. Moreover, the inhibition at 3 µM in assay [2] (setting [3]) stood at 86.4%. Besides, in assay [2] (setting [4]), the inhibition at 3 µM is under 5%.
In turn, `FC(F)(F)Oc1ccc(-c2ccc3onc(OCc4nnc(C5CC5)s4)c3c2)cc1` [Example 154, 3-((5-cyclopropyl-1,3,4-thiadiazol-2-yl)methoxy)-5-(4-(trifluoromethoxy)phenyl)benzo[d]isoxazole] registered an inhibition at 1 µM in assay [1] of 39.2%. The inhibition at 3 µM in assay [2] (setting [3]) is 7.68%; in assay [2] (setting [4]), under 5%.
`CC(C)(C)OC(=O)N1CCOC[C@H]1COc1noc2ccc(-c3ccc(OC(F)(F)F)cc3)cc12` [Example 111, tert-butyl(S)-3-(((5-(4-(trifluoromethoxy)phenyl)benzo[d]isoxazol-3-yl)oxy)methyl)morpholine-4-carboxylate]: the inhibition at 1 µM in assay [1] was 35.1%. Moreover, the inhibition at 3 µM is under 5% in assay [2] (setting [3]) and 7.3% in assay [2] (setting [4]).
In assay [1], `CC(C)[C@@H](COc1noc2ccc(-c3ccc(OC(F)(F)F)cc3)cc12)N1CCCC1=O` [Example 120, (S)-1-(3-methyl-1-((5-(4-(trifluoromethoxy)phenyl)benzo[d]isoxazol-3-yl)oxy)butan-2-yl)pyrrolidin-2-one] had an inhibition at 0.3 µM of 35.8% and an inhibition at 1 µM of 58.2%. For the same compound, the inhibition at 3 µM in assay [2] (setting [3]) was 35.2%. Moreover, the inhibition at 3 µM in assay [2] (setting [4]) amounted to 6.6%.
Compound `C[C@H](COc1noc2ccc(-c3ccc(OC(F)(F)F)cc3)cc12)N1CCCC1=O` [Example 119, (R)-1-(1-((5-(4-(trifluoromethoxy)phenyl)benzo[d]isoxazol-3-yl)oxy)propan-2-yl)pyrrolidin-2-one] returned an inhibition at 1 µM in assay [1] of 51.2%. Also, the inhibition at 3 µM in assay [2] (setting [3]) was determined as 36.1%; in assay [2] (setting [4]), 6.4%.
In assay [1], `CCN(CC)C(=O)COc1noc2ccc(-c3ccc(OC(F)(F)F)cc3)cc12` [Example 150, N,N-diethyl-2-((5-(4-(trifluoromethoxy)phenyl)benzo[d]isoxazol-3-yl)oxy)acetamide] came in with an inhibition at 0.3 µM of 49.4% and an inhibition at 1 µM of 68.2%. For the same compound, the inhibition at 3 µM in assay [2] (setting [3]) turned out to be 58.5%. For the same compound, in assay [2] (setting [4]), the inhibition at 3 µM amounted to 9.3%.
In assay [1], `Cc1nnc(COc2noc3ccc(-c4ccc(OC(F)(F)F)cc4)cc23)o1` [Example 99, 3-((5-methyl-1,3,4-oxadiazol-2-yl)methoxy)-5-(4-(trifluoromethoxy)phenyl)benzo[d]isoxazole] had an inhibition at 0.3 µM of 42.3% and an inhibition at 1 µM of 72.3%. For the same compound, the inhibition at 3 µM in assay [2] (setting [3]) was found to be 55.6%. In addition, in assay [2] (setting [4]), the inhibition at 3 µM is under 5%.
As to `FC(F)(F)Oc1ccc(-c2ccc3onc(-n4cnc(-c5ccccc5)c4)c3c2)cc1` [Example 142, 3-(4-phenyl-1H-imidazol-1-yl)-5-(4-(trifluoromethoxy)phenyl)benzo[d]isoxazole], the inhibition at 1 µM in assay [1] came out at 44%. The inhibition at 3 µM came out at 15.6% in assay [2] (setting [3]) and 13.9% in assay [2] (setting [4]).
In assay [1], `FC(F)(F)Oc1ccc(-c2ccc3onc(OCc4ncccn4)c3c2)cc1` [Example 1, 3-(pyrimidin-2-ylmethoxy)-5-(4-(trifluoromethoxy)phenyl)benzo[d]isoxazole] registered an inhibition at 0.3 µM of 55% and an inhibition at 1 µM of 66.2%.
